According to publication PMC11068671, “New-generation biofilm effective antimicrobial peptides and a real-time anti-biofilm activity assay: CoMIC” (Applied Microbiology and Biotechnology, 2024):
≈ marks a conversion by molar mass, not a printed value. Non-standard residues stand in square brackets, D forms with d. Residues, ends and D or L forms follow the SMILES beside them. No end group written: not given here.

Tests used:
[1] = tested on: E. coli; test: SEM of cell membrane integrity; format: cell-based; details: 16 µg/mL peptide, 10^5 CFU/mL, 37°C, 4–5 h
Method: The effect of NET1 peptides on the integrity of E. coli cell membranes was shown by SEM (Wang et al. [2018]). […] Peptide molecules were mixed with 10^5 CFU/mL of E. coli and incubated at 37°C for 4–5 h. […] After incubation, 20 µL of the mixture containing peptide antibiotics and bacteria was applied to a dialysis membrane. Then, it was fixed and imaged by the SEM microscope. As a negative control, bacteria which was not treated with peptide molecules were also used.

[2] = tested on: MRSA biofilm; test: Antibiofilm activity, conventional crystal violet (CV) method; format: cell-based, Methicillin-resistant S. aureus
Method: There was 90 µL of 10^6 CFU/mL MRSA in MHB media with fructose transferred into wells. Then, 10 µL of 1:2 serial dilutions of the antimicrobial peptides (1280–0 µg/mL) was added in wells. So that, final concentrations of peptides were 128–0 µg/mL. Plates were incubated at 37°C overnight. After overnight incubation, they were analyzed with conventional CV method. For this purpose, the bacterial cultures were removed, and wells were washed with distilled water. 200 µl of 1% CV dye was added to each well and incubated at room temperature for 15 min in the dark. Then, CV dye was removed, and wells were washed with water. After dried the plate in an oven at 45–50°C, 33% acetic acid was added into wells to dissolve the dye and wells were spectrophotometrically read by Varioscan (Thermo, USA) at 590 nm (Stepanović et al. [2000]). Biofilm inhibiton rates (%) were calculated by the following formula (Liu et al. [2021]): (1-A590ofwellstreatedwithpeptides/[…])×100
Before this calculation, the values obtained from all wells were subtracted from the value from the empty wells (Blank).

[3] = tested on: erythrocytes; format: cell-based
Method: Hemolytic activity assays were carried out using erythrocytes, using triton X-100 as lysis control agent. Hemolytic activities were analyzed by reading each well with a plate reader spectrophotometer device at 414 nm and the % lysis rate was calculated in Microsoft Excel according to the following formula (Eren et al. [2008]). Lysis%=[OD414-OD414blank]/[OD414totallysis-OD414blank]×100

[4] = tested on: VRE; format: cell-based, Vancomycin-resistant Enterococcus
From the text: (§1) NET1, NET2, NET3, and NET4 peptide antibiotics were used in the experiments. For the purpose of the study, both clinical isolates Methicillin-Resistant S. aureus (MRSA), Vancomycin-resistant Enterococcus (VRE), E. coli ER2566, E. coli 13846 bacteria and ATCC strains S. aureus and E. coli bacteria were used in the MIC study. All strains used in this study have been deposited in a strain collection of the Research Laboratory of Acibadem Mehmet Ali Aydinlar University. For experiment 0.5 McFarland bacterial suspension was prepared in Müeller Hinton Broth (MHB) media. In the 96-well plate, serial dilutions of peptide antibiotics starting from 512 to 0 μg/mL were made in MHB media and added 5 µl of bacterial suspensions. After incubated overnight at 37°C, results were evaluated according to turbidity (Teh et al. [2017]). Ampicillin was used as positive controls.

[5] = molecular target: Proteinase K (Parengyodontium album, UniProt P06873); test: Protease resistance, Proteinase K treatment with HPLC analysis; format: in vitro ADME; details: analytical HPLC
Method: Proteinase K was used for testing the resistance of the designed peptides to proteases, since Proteinase K, a serine protease with broad-spectrum cleavage activity that preferentially cleaves aliphatic and aromatic amino acid residues, is widely used in the literature to determine the protease resistance of antimicrobial peptides (Lucio et al. [2017], Wang et al. [2019]). Afterwards, HPLC characterization was performed to understand the effect of Proteinase K on peptides.

[6] = tested on: E. coli ER2566; format: cell-based
From the text: as §1

[7] = tested on: S. aureus ATCC29213; format: cell-based
From the text: as §1

[8] = tested on: E. coli ATCC25922; format: cell-based
From the text: as §1

[9] = tested on: S. aureus ATCC25923; format: cell-based
From the text: as §1

[10] = tested on: E. coli NTCC13846; format: cell-based
From the text: as §1

[11] = tested on: 3T3 cell line; test: in vitro; format: cell-based
From the text: (§2) MTT Cell Proliferation Kit (Sigma), a colorimetric method, was used for this test to evaluate the damage that peptides can cause in eukaryotic cells and all cell lines used in this study have been deposited in a collection of the Research Laboratory of Acibadem Mehmet Ali Aydinlar University. The cell lines of 3T3 (ATCC CRL-1658) and HaCaT (ATCC PCS-200-011) were revived under appropriate culture conditions and made ready for the experiment. The final concentration of peptides reached 64 to 0.5 μg/mL. Samples were worked in triplicates for each concentration. Cells incubated without peptide-treatment under the same conditions were used as a control. Magainin II, a known natural AMP that has no cytotoxic effects, was used as a positive control (Bacalum and Radu [2015]). The results were analyzed by reading them with a 96-well plate reader at 550 and 690 nm.

[12] = tested on: HaCaT cell line; test: in vitro; format: cell-based
From the text: as §2

[13] = in vitro; format: cell-based
From the text: as §2

[14] = tested on: MRSA; format: cell-based, Methicillin-Resistant S. aureus
From the text: as §1

[15] = tested on: MRSA biofilm; test: Antibiofilm activity, CoMIC method; format: cell-based, Methicillin-resistant S. aureus; details: peptides added just before the start of biofilm formation
Method: Ninety microliters of 0.5 McF Methicillin-resistant S. aureus (MRSA) (1.5×10^8 CFU/mL) in Congo Red Broth media with fructose was transferred into wells. Plates were incubated at 37°C. At the time just before the start of biofilm formation as optimized in Fig. 4, 10 µL of 1:2 serial dilutions of the antimicrobial peptides (2560–0 µg/mL) was added in wells. So that, final concentrations of peptides were 256–0 µg/mL. Incubation of media continued overnight. Then, wells were evaluated according to their black color formation.

[16] = tested on: Staphylococcus aureus; design: method as in Dean et al. [2011]; details: ref Dean et al. [2011]; cited from earlier work

Proteinase K, sequence (P06873 106-384): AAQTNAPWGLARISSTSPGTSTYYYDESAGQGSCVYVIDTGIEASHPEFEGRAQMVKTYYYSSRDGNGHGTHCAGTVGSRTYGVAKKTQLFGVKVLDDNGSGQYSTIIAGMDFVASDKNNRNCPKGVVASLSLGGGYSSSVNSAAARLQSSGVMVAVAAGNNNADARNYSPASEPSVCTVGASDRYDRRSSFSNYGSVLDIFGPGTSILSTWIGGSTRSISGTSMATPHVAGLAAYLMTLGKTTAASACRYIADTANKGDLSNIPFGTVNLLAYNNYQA

Row | Compound | effect on E. coli cells seen by SEM [1] | concentration that provided over 50% biofilm inhibition ([2]; CV method) [µg/mL] | Peptide concentration inhibiting the biofilm at 100%, Crystal Violet ([2]; peptides added at the very beginning of culture) [µg/mL] | HC50 value as times the MIC value [3] | therapeutic index for hemolytic activities [3] | MIC [4] [µg/mL] | resistance to proteases (HPLC after proteinase K treatment) [5] | MIC [6] [µg/mL] | MIC [7] [µg/mL] | MIC [8] [µg/mL] | MIC [9] [µg/mL] | MIC [10] [µg/mL] | therapeutic index for cytotoxic activities [11] | IC50 value as times the MIC value [12] | therapeutic index for cytotoxic activities [12] | IC50 ([13]; human) [µg/mL] | IC50 ([13]; mouse) [µg/mL] | MIC [14] [µg/mL] | Peptide concentration inhibiting the biofilm at 100%, CoMIC [15] [µg/mL] | activity of the D-form, times lower than L-form [16] [times]
1 | CC(C)C[C@@H](NC(=O)[C@H](CCCNC(=N)N)NC(=O)[C@@H](CC(C)C)NC(=O)[C@@H](CC(C)C)NC(=O)[C@@H](CC(C)C)NC(=O)[C@@H](N)CCCNC(=N)N)C(=O)N[C@H](CC(C)C)C(=O)N[C@@H](CCCNC(=N)N)C(=O)N[C@@H](CCCNC(=N)N)C(=O)N[C@H](CC(C)C)C(=O)N[C@H](CC(C)C)C(=O)N[C@@H](CCCNC(=N)N)C(=O)N[C@H](CC(C)C)C(=O)N[C@H](CC(C)C)C(=O)N[C@H](CC(C)C)C(=O)N[C@@H](CCCNC(=N)N)C(N)=O [NET1, RLLLRLLRRLLRLLLR-NH2] (H-R[dL][dL][dL]R[dL][dL]RR[dL][dL]R[dL][dL][dL]R-NH2; N-terminus assumed) | lethal to E. coli | 2 | 4 | 16–32 times | 32 | 0.5 (≈ 0.24 µM) | not fractionated by proteases | <0.25 | 2 (≈ 0.959 µM) | 2 (≈ 0.959 µM) | 4 (≈ 1.92 µM) | 4 (≈ 1.92 µM) | 16 | 16-32 times | 32 | 64 (≈ 30.7 µM) | 32 (≈ 15.3 µM) | 2 (≈ 0.959 µM) | 64 | –
2 | LL-37: LL-37 peptide, only D-form compared with only L-form in a cited study (LLGDFFRKSKEKIGKEFKRIVQRIKDFLRNLVPRTES; not fully specified; also: all-D and all-L forms; UniProt P49913 134-170, looked up) | – | – | – | – | – | – | – | – | – | – | – | – | – | – | – | – | – | – | – | 10
